Results taken from PubChem BioAssay AID248 (DTP/NCI, 2004).
Several values for one entry are separate records, joined by “and”; a condition that tells them apart may be missing. Equal entries are not always repeated. Toxic doses and inconclusive results are not listed. Rule as the data show it: active = T/C of 150% or more; inactive = T/C below 125%.

Test system: L1210 leukemia ip in BDF1 mice, survival T/C
Assay: NCI In Vivo Anticancer Drug Screen. Data for tumor model L1210 Leukemia (intraperitoneal) in B6D2F1 (BDF1) mice
Details: higher = longer survival
Outline: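 Ratio derived from survival: compound-dosed mice over vehicle-dosed mice, all bearing a transplantable tumor.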

[1] = endpoint: mean survival time, dose: 100.0 mg/kg/injection, schedule: Q01DX001 (ip), vehicle: saline with Tween-80
[2] = endpoint: mean survival time, dose: 200.0 mg/kg/injection, schedule: Q01DX001 (ip), vehicle: saline with Tween-80
[3] = endpoint: mean survival time, dose: 400.0 mg/kg/injection, schedule: Q01DX001 (ip), vehicle: saline with Tween-80
[4] = endpoint: mean survival time, dose: 100.0 mg/kg/injection, schedule: Q01DX001 (sc), vehicle: steriod suspending solution
[5] = endpoint: mean survival time, dose: 200.0 mg/kg/injection, schedule: Q01DX001 (sc), vehicle: steriod suspending solution
[6] = endpoint: mean survival time, dose: 400.0 mg/kg/injection, schedule: Q01DX001 (sc), vehicle: steriod suspending solution
[7] = endpoint: mean survival time, dose: 100.0 mg/kg/injection, schedule: Q01DX009 (ip), vehicle: Klucel (hydroxypropylcellulose) (HPC)
[8] = endpoint: mean survival time, dose: 200.0 mg/kg/injection, schedule: Q01DX009 (ip), vehicle: Klucel (hydroxypropylcellulose) (HPC)
[9] = endpoint: mean survival time, dose: 100.0 mg/kg/injection, schedule: Q04DX003 (ip), vehicle: saline with Tween-80
[10] = endpoint: mean survival time, dose: 200.0 mg/kg/injection, schedule: Q04DX003 (ip), vehicle: saline with Tween-80
[11] = endpoint: mean survival time, dose: 400.0 mg/kg/injection, schedule: Q04DX003 (ip), vehicle: saline with Tween-80
[12] = endpoint: mean survival time, dose: 50.0 mg/kg/injection, schedule: Q01DX009 (ip), vehicle: saline with Tween-80
[13] = endpoint: mean survival time, dose: 200.0 mg/kg/injection, schedule: Q01DX009 (ip), vehicle: saline with Tween-80
[14] = endpoint: mean survival time, dose: 100.0 mg/kg/injection, schedule: Q01DX001 (ip), vehicle: carboxymethylcellulose (CMC)
[15] = endpoint: mean survival time, dose: 200.0 mg/kg/injection, schedule: Q01DX001 (ip), vehicle: carboxymethylcellulose (CMC)
[16] = endpoint: mean survival time, dose: 400.0 mg/kg/injection, schedule: Q01DX001 (ip), vehicle: carboxymethylcellulose (CMC)
[17] = endpoint: mean survival time, dose: 100.0 mg/kg/injection, schedule: Q01DX009 (ip), vehicle: saline with Tween-80
[18] = endpoint: mean survival time, dose: 100.0 mg/kg/injection, schedule: Q01DX001 (ip), vehicle: saline
[19] = endpoint: mean survival time, dose: 200.0 mg/kg/injection, schedule: Q01DX001 (ip), vehicle: saline
[20] = endpoint: mean survival time, dose: 400.0 mg/kg/injection, schedule: Q01DX001 (ip), vehicle: saline

Measured: T/C

Cc1ccc(C)c2c(CC(=O)O)c[nH]c12
inactive: [1] 100 % of control | [2] 107 % of control | [3] 102 % of control

CC(=O)[C@@]1(O)CC[C@H]2[C@@H]3C[C@H](C)C4=CC(=O)C=C[C@]4(C)[C@@]3(F)[C@@H](O)C[C@@]21C
inactive: [4] 103 % of control | endpoint: mean survival time, dose: 100.0 mg/kg/injection, schedule: Q01DX009 (sc), vehicle: steriod suspending solution 115 % of control | [5] 100 % of control | endpoint: mean survival time, dose: 200.0 mg/kg/injection, schedule: Q01DX009 (sc), vehicle: steriod suspending solution 108 % of control | [6] 103 % of control | endpoint: mean survival time, dose: 400.0 mg/kg/injection, schedule: Q01DX009 (sc), vehicle: steriod suspending solution 111 % of control | endpoint: mean survival time, dose: 800.0 mg/kg/injection, schedule: Q01DX001 (sc), vehicle: steriod suspending solution 103 % of control | endpoint: mean survival time, dose: 800.0 mg/kg/injection, schedule: Q01DX009 (sc), vehicle: steriod suspending solution 101 % of control

CC12CCC(O)CC1=CC=C1C2CCC2(C)C(OC(=O)c3ccccc3)CCC12 (stereo unspecified)
inactive: [1] 91 % of control | [2] 93 % of control | [3] 98 % of control

CCN(CC)C(=O)c1ccc([N+](=O)[O-])cc1
inactive: endpoint: mean survival time, dose: 50.0 mg/kg/injection, schedule: Q01DX009 (ip), vehicle: Klucel (hydroxypropylcellulose) (HPC) 97 % of control | [7] 97 % of control | endpoint: mean survival time, dose: 100.0 mg/kg/injection, schedule: Q04DX003 (ip), vehicle: Klucel (hydroxypropylcellulose) (HPC) 92 % of control | [8] 95 % of control | endpoint: mean survival time, dose: 200.0 mg/kg/injection, schedule: Q04DX003 (ip), vehicle: Klucel (hydroxypropylcellulose) (HPC) 100 % of control

OCC1C(CO)C2(Cl)C(Cl)=C(Cl)C1(Cl)C2(Cl)Cl (stereo unspecified)
inactive: [7] 90 % of control | endpoint: mean survival time, dose: 100.0 mg/kg/injection, schedule: Q04DX003 (ip), vehicle: saline 94 % of control | [8] 100 % of control | endpoint: mean survival time, dose: 200.0 mg/kg/injection, schedule: Q04DX003 (ip), vehicle: saline 101 % of control | endpoint: mean survival time, dose: 400.0 mg/kg/injection, schedule: Q01DX009 (ip), vehicle: Klucel (hydroxypropylcellulose) (HPC) 111 % of control | endpoint: mean survival time, dose: 400.0 mg/kg/injection, schedule: Q04DX003 (ip), vehicle: saline 99 % of control

C/C(=N\N=C(/C)c1cccc([N+](=O)[O-])c1)c1cccc([N+](=O)[O-])c1
inactive: endpoint: mean survival time, dose: 100.0 mg/kg/injection, schedule: Q01DX001 (ip), vehicle: other 100 % of control | endpoint: mean survival time, dose: 200.0 mg/kg/injection, schedule: Q01DX001 (ip), vehicle: other 100 % of control | endpoint: mean survival time, dose: 400.0 mg/kg/injection, schedule: Q01DX001 (ip), vehicle: other 97 % of control

COC(=O)Nc1cccc(OC(=O)NC2CCCCC2)c1
inactive: [9] 100 % of control | [10] 100 % of control | [11] 93 % of control

CC(=O)Nc1ccc(OCCOC(=O)Nc2ccc(C)c([N+](=O)[O-])c2)cc1
inactive: [12] 87 % of control | [13] 87 % of control

CCCCOC(=O)C(C)(O)C(Cl)c1ccccc1 (stereo unspecified)
inactive: endpoint: mean survival time, dose: 100.0 mg/kg/injection, schedule: Q04DX002 (ip), vehicle: saline 100 % of control | endpoint: mean survival time, dose: 200.0 mg/kg/injection, schedule: Q04DX002 (ip), vehicle: saline 95 % of control | endpoint: mean survival time, dose: 400.0 mg/kg/injection, schedule: Q04DX002 (ip), vehicle: saline 91 % of control

O=C(O)Cc1ccc(NC(=O)NCCCl)cc1
inactive: [14] 87 % of control | [15] 98 % of control | [16] 93 % of control

CC(=O)OCC(OC(C)=O)C(OC(C)=O)C(OC(C)=O)C(OC(C)=O)C(C=O)OC(C)=O (stereo unspecified)
inactive: [9] 92 % of control | [10] 95 % of control | [11] 106 % of control

C/C=C/C1OCC(CC)([N+](=O)[O-])CO1 (stereo unspecified)
inactive: [9] 101 % of control | [10] 96 % of control | [11] 98 % of control

CCCCCCCCCCCCN (tested in a mixture with another compound)
inactive: endpoint: mean survival time, dose: 87.5 mg/kg/injection, schedule: Q01DX001 (ip), vehicle: Klucel (hydroxypropylcellulose) (HPC) 93 % of control

Nc1nc(=O)n(CC(=O)c2cccs2)cc1F
inactive: endpoint: mean survival time, dose: 25.0 mg/kg/injection, schedule: Q01DX009 (ip), vehicle: saline with Tween-80 96 % of control | [12] 98 % of control and 87 % of control | [17] 96 % of control and 98 % of control | [9] 97 % of control | [10] 103 % of control | [11] 97 % of control

CC(c1ccccc1)n1cnc2c(=O)[nH]cnc21 (stereo unspecified)
inactive: endpoint: mean survival time, dose: 50.0 mg/kg/injection, schedule: Q01DX001 (ip), vehicle: carboxymethylcellulose (CMC) 106 % of control | [14] 101 % of control | [15] 101 % of control | [16] 95 % of control

O=C(O)c1c(O)c2cc(Br)ccc2oc1=O
inactive: [18] 98 % of control | [19] 98 % of control | [20] 102 % of control

COc1cc2c(cc1OC)C13CCN4CC5=CCOC6CC(=O)N2C1C6C5CC43O (stereo unspecified)
inactive: [18] 89 % of control | [19] 86 % of control | [20] 89 % of control

[O-]/[N+](=N\Nc1ccccc1)c1ccccc1
inactive: endpoint: mean survival time, dose: 7.5 mg/kg/injection, schedule: Q01DX009 (ip), vehicle: saline with Tween-80 107 % of control | endpoint: mean survival time, dose: 15.0 mg/kg/injection, schedule: Q01DX009 (ip), vehicle: saline with Tween-80 104 % of control | endpoint: mean survival time, dose: 30.0 mg/kg/injection, schedule: Q01DX009 (ip), vehicle: saline with Tween-80 89 % of control | endpoint: mean survival time, dose: 60.0 mg/kg/injection, schedule: Q01DX009 (ip), vehicle: saline with Tween-80 96 % of control

COC(=O)c1cc(NC(=O)Nc2cccc(C(F)(F)F)c2)cc(C(=O)OC)c1
inactive: [17] 100 % of control | [13] 92 % of control | endpoint: mean survival time, dose: 400.0 mg/kg/injection, schedule: Q01DX009 (ip), vehicle: saline with Tween-80 96 % of control

CC(C)CCC[C@@H](C)[C@H]1CC[C@H]2[C@@H]3CC=C4C(C)(C)C(=O)CC[C@]4(C)[C@H]3CC[C@]12C
inactive: [4] 97 % of control | [5] 98 % of control | [6] 97 % of control

OC1OC2COC(c3ccccc3)OC2C(O)C1O (stereo unspecified)
inactive: endpoint: median survival time, dose: 25.0 mg/kg/injection, schedule: Q01DX009 (ip), vehicle: water 106 % of control | endpoint: median survival time, dose: 50.0 mg/kg/injection, schedule: Q01DX009 (ip), vehicle: water 106 % of control | endpoint: median survival time, dose: 100.0 mg/kg/injection, schedule: Q01DX009 (ip), vehicle: water 97 % of control | endpoint: median survival time, dose: 200.0 mg/kg/injection, schedule: Q01DX009 (ip), vehicle: water 100 % of control | endpoint: median survival time, dose: 400.0 mg/kg/injection, schedule: Q01DX009 (ip), vehicle: water 101 % of control | endpoint: median survival time, dose: 800.0 mg/kg/injection, schedule: Q01DX009 (ip), vehicle: water 96 % of control

C[Si](C)(C)Oc1ccc(O[Si](C)(C)C)cc1
inactive: endpoint: mean survival time, dose: 100.0 mg/kg/injection, schedule: Q01DX009 (ip), vehicle: other 92 % of control | endpoint: mean survival time, dose: 200.0 mg/kg/injection, schedule: Q01DX009 (ip), vehicle: other 94 % of control | endpoint: mean survival time, dose: 400.0 mg/kg/injection, schedule: Q01DX009 (ip), vehicle: other 101 % of control

CN(C)Cc1ccccc1COC(=O)c1ccccc1
inactive: endpoint: mean survival time, dose: 100.0 mg/kg/injection, schedule: Q04DX002 (ip), vehicle: Klucel (hydroxypropylcellulose) (HPC) 119 % of control | endpoint: mean survival time, dose: 200.0 mg/kg/injection, schedule: Q04DX002 (ip), vehicle: Klucel (hydroxypropylcellulose) (HPC) 105 % of control | endpoint: mean survival time, dose: 400.0 mg/kg/injection, schedule: Q04DX002 (ip), vehicle: Klucel (hydroxypropylcellulose) (HPC) 97 % of control

N#Cc1cc[n+](Cc2ccccc2)cc1
inactive: endpoint: mean survival time, dose: 75.0 mg/kg/injection, schedule: Q01DX001 (ip), vehicle: saline 101 % of control | endpoint: mean survival time, dose: 150.0 mg/kg/injection, schedule: Q01DX001 (ip), vehicle: saline 102 % of control
